Values quoted from earlier work, collected in paper PMC6891678, “A Novel Prodrug Approach for Central Nervous System-Selective Estrogen Therapy” (Molecules, 2019).

Key:
[1] = system: OVX CD1 mice; conditions: increasing s.c. doses, 5 days once daily
[2] = E2-CDS-treated animals
[3] = system: uterus; conditions: after E2-CDS
[4] = system: retina homogenate; conditions: 100 μM, 37 °C, homogenate 0.2% w/v, pH 7.4; mean ± SD
[5] = system: brain homogenate; conditions: 100 μM, 37 °C, homogenate 0.2% w/v, pH 7.4; mean ± SD
[6] = system: liver homogenate; conditions: 100 μM, 37 °C, homogenate 0.2% w/v, pH 7.4; mean ± SD
[7] = system: transient middle cerebral artery occlusion (tMCAO) ischemic stroke model; conditions: for ED50 (dose equivalent to 50% of the maximum effect): neuroprotection, tMCAO followed by reperfusion
[8] = system: MCP-1−/− transgenic mouse model; design: method as in earlier work; conditions: topical eye drops; for increase of contrast sensitivity compared to the vehicle control: ipsilateral/treated eye
[9] = system: ER transcription (ERE-Luc reporter)
[10] = not given; remark: listed apart in the source
[11] = system: uterus; conditions: increasing s.c. doses, 5 days once daily
[12] = 300 µg/kg s.c., 5 days once daily, SEM, n = 4
[13] = system: middle-aged OVX Fisher-344 rats; conditions: continuous 7-week s.c. administration, 4 µg daily dose
[14] = system: amyloid-β peptide (Aβ); conditions: OVX and intact female APPswe/PS1dE9 DTG mice

SMILES: C[C@]12CC[C@@H]3c4ccc(O)cc4CC[C@H]3[C@@H]1CC[C@H]2O [αE2, 17α-estradiol, reference compound]
- immobility time in PST [1]: dose-dependent reduction in immobility times

SMILES: CN1C=CCC(C(=O)O[C@H]2CC[C@H]3[C@@H]4CCc5cc(O)ccc5[C@H]4CC[C@]23C)=C1 [E2-CDS]
- E2 content of uterus [2]: 1 to 3 ng/g
- wet uterine weight relative to control (uterotrophic effect) [3]: significant increase in wet uterine weight

SMILES: C[C@]12CC[C@@H]3C4=C(CC[C@H]3[C@@H]1CCC2=O)C(=O)C(=O)C=C4 [3,4-E1-quinone, estra-1,5(10)-dien-3,4,17-trione, reference compound]
- Rate of H2O2 production, Retina [4]: 580 ± 50 nmol·h^−1·mg protein^−1
- Rate of H2O2 production, Brain [5]: 1050 ± 8 nmol·h^−1·mg protein^−1
- Rate of H2O2 production, Liver [6]: 687 ± 40 nmol·h^−1·mg protein^−1

SMILES: C[C@]12CC[C@H]3[C@@H](CCC4=CC(=O)C=C[C@@]43O)[C@@H]1CCC2=O [HEDD, 10β-hydroxyestra-1,4-dien-3,17-dione]
- neuroprotection in stroke model ([7]; without peripheral hormonal liability): significant neuroprotection

SMILES: C[C@]12CC[C@@H]3c4ccc(O)cc4CC[C@H]3[C@@H]1CC[C@@H]2O [E2, 17β-estradiol, reference compound]
- ED50 (dose equivalent to 50% of the maximum effect) [7]: ~ 200 µg/kg
- E2 concentration in the retina (3-week daily E2 eye drops): ~ 22 ng/g
- circulating estrogen levels (chronic E2 eye drop treatment): > 400 pg/mL
- increase of contrast sensitivity compared to the vehicle control [8]: ~2 fold
- preservation of contrast sensitivity compared to the wild-type (WT) control [8]: ~50%
- time of maximum bioluminescence effect after drug treatment ([9]; E2 20 μg/kg s.c.): about 3 h
- oral bioavailability [10]: lacks appreciable oral bioavailability

SMILES: C[C@]12CC[C@H]3[C@@H](CCC4=CC(=O)C=C[C@@]43O)[C@@H]1CC[C@H]2O [αDHED, 10β,17α-dihydroxyestra-1,4-dien-3-one]
- immobility time in PST [1]: dose-dependent reduction in immobility times
- uterotrophic effect (wet uterus weight) [11]: devoid of this detrimental common side effect
- Cortex αE2 [12]: 8.9 ± 1.7 ng/g
- Serum αE2 [12]: <0.01 ng/mL
- Cortex E2 ([12]; endogenous E2): 0.28 ± 0.09 ng/g
- Serum E2 ([12]; endogenous E2): <0.01 ng/mL
- Uterus E2 ([12]; endogenous E2): 0.37 ± 0.10 ng/g

SMILES: C[C@]12CC[C@H]3[C@@H](CCC4=CC(=O)C=C[C@@]43O)[C@@H]1CC[C@@H]2O [DHED, 10β,17β-dihydroxyestra-1,4-dien-3-one]
- ED50 (dose equivalent to 50% of the maximum effect) [7]: 15 µg/kg
- increase of contrast sensitivity compared to the vehicle control [8]: approximately 3 fold
- preservation of contrast sensitivity compared to the wild-type (WT) control [8]: approximately 75%
- ER activation within the brain (bioluminescence in brain slices) ([9]; i.c.v. injection, 75 µg/kg): profound ER activation
- bioluminescence in the periphery (ERE-Luc reporter activation) ([9]; s.c., E2 20 μg/kg, DHED 200 μg/kg): did not generate bioluminescence in the periphery
- oral bioavailability [10]: excellent oral bioavailability
- working memory errors compared to control animals [13]: significantly decreased working memory errors
- amyloid-β peptide (Aβ) levels in the brain [14]: decreased amyloid-β peptide (Aβ) levels in the brain
- Rate of H2O2 production, Retina [4]: 163 ± 9 nmol·h^−1·mg protein^−1
- Rate of H2O2 production, Brain [5]: 125 ± 19 nmol·h^−1·mg protein^−1
- Rate of H2O2 production, Liver [6]: 34 ± 18 nmol·h^−1·mg protein^−1
